This experiment has as its system neonatal cardiomyocytes. Kind of experiment: Ang II-induced mitochondrial superoxide (Mitosox) in neonatal cardiomyocytes. In kind it is cell-based, mouse. To be noted: Angiotensin II 1 μM for 3 hours; peptide conjugates 1 nM or equimolar; NAC 0.5 mM. On the procedure: Ventricles from mouse neonates younger than 72 hours will be dissected, minced, and enzymatically digested with Blendzyme 4 (45 mg/mL, Roche). After enzymatic digestion, cardiomyocytes will be enriched using differential pre-plating for 2 hours, and seeded on fibronectin-coated culture dishes for 24 hours in DMEM (Gibco) with 20% Fetal Bovine Seium (Sigma) and 25 μM Arabinosylcytosine (Sigma). Cardiomyocytes will be stimulated with Angiotensin II (1 μM) for 3 hours in serum-free DMEM containing 0.5% insulin transferrin-selenium (Sigma), 2 mM glutamine, and 1 mg/mL BSA. […] Samples will be analyzed using excitation/emission of 488/625 nm by flow cytometry. Flow data will be analyzed using FCS Express (De Novo Software, Los Angeles, Calif., U.S.A.), and presented as histogram distributions of Mitosox fluorescence intensity.

Take `CC(=O)N[C@@H](CS)C(=O)O` [N-acetyl cysteine]: the “Ang II-induced Mitosox fluorescence (mitochondrial ROS)” value is given as “not show any effect”.

These data come from patent US20180354991A1, “THERAPEUTIC COMPOSITIONS INCLUDING GRAMICIDIN S PEPTIDYL CONJUGATES OR IMIDAZOLE-SUBSTITUTED FATTY ACIDS, VARIANTS THEREOF AND USES THEREOF” (Stealth Biotherapeutics Corp, priority 2015, published 2018).
